# Experimental data from PubChem BioAssay (NCI).
#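 Five concentrations, 48 hours, 96-well plates. TGI: concentration producing complete growth inhibition.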
# Key:
# Assay in all cases: NCI-60 cell line screen, 48 h
# M14 melanoma = test system: M14 melanoma
# A498 renal = test system: A498 renal
# RPMI-8226 leukemia = test system: RPMI-8226 leukemia
# LOX IMVI melanoma = test system: LOX IMVI melanoma
# HOP-92 NSCLC = test system: HOP-92 NSCLC
# KM12 colon = test system: KM12 colon
# EKVX NSCLC = test system: EKVX NSCLC
# COLO 205 colon = test system: COLO 205 colon
# DMS 273 small cell lung = test system: DMS 273 small cell lung
# DMS 114 small cell lung = test system: DMS 114 small cell lung
# M19-MEL melanoma = test system: M19-MEL melanoma
# HL-60(TB) leukemia = test system: HL-60(TB) leukemia
# NCI-H23 lung = test system: NCI-H23 lung
# NCI-H460 lung = test system: NCI-H460 lung
# SK-OV-3 ovarian = test system: SK-OV-3 ovarian
# SNB-78 CNS = test system: SNB-78 CNS
# SK-MEL-5 melanoma = test system: SK-MEL-5 melanoma
# SF-268 CNS = test system: SF-268 CNS
# MOLT-4 leukemia = test system: MOLT-4 leukemia
# OVCAR-8 ovarian = test system: OVCAR-8 ovarian
# UACC-257 melanoma = test system: UACC-257 melanoma
# HT29 colon = test system: HT29 colon
# MALME-3M melanoma = test system: MALME-3M melanoma
# IGROV1 ovarian = test system: IGROV1 ovarian
# K-562 leukemia = test system: K-562 leukemia
# RXF-631 renal = test system: RXF-631 renal
# HOP-62 NSCLC = test system: HOP-62 NSCLC
# CAKI-1 renal = test system: CAKI-1 renal
# KM20L2 colon = test system: KM20L2 colon
# LXFL 529 NSCLC = test system: LXFL 529 NSCLC
# HCT-116 colon = test system: HCT-116 colon
# U251 CNS = test system: U251 CNS
# DLD-1 colon = test system: DLD-1 colon
# HCC-2998 colon = test system: HCC-2998 colon
# SF-295 CNS = test system: SF-295 CNS
# SW-620 colon = test system: SW-620 colon
# OVCAR-5 ovarian = test system: OVCAR-5 ovarian
# OVCAR-3 ovarian = test system: OVCAR-3 ovarian
# UO-31 renal = test system: UO-31 renal
# 786-0 renal = test system: 786-0 renal
# HCT-15 colon = test system: HCT-15 colon
# SNB-75 CNS = test system: SNB-75 CNS
# SF-539 CNS = test system: SF-539 CNS
# UACC-62 melanoma = test system: UACC-62 melanoma
# ACHN renal = test system: ACHN renal
# TK-10 renal = test system: TK-10 renal
# A549 NSCLC = test system: A549 NSCLC
# SK-MEL-2 melanoma = test system: SK-MEL-2 melanoma
# SNB-19 CNS = test system: SNB-19 CNS
# CCRF-CEM leukemia = test system: CCRF-CEM leukemia
# SK-MEL-28 melanoma = test system: SK-MEL-28 melanoma
# RXF 393 renal = test system: RXF 393 renal
# NCI-H226 lung = test system: NCI-H226 lung
# XF 498 CNS = test system: XF 498 CNS
# SN12C renal = test system: SN12C renal
# NCI-H522 lung = test system: NCI-H522 lung
# OVCAR-4 ovarian = test system: OVCAR-4 ovarian
# HOP-18 NSCLC = test system: HOP-18 NSCLC
# SR leukemia = test system: SR leukemia
compound,measurement,setting,value
O=C(N/N=C(/c1nc2ccc(Cl)cc2[nH]c1=O)C(O)c1ccc(Cl)cc1Cl)c1ccncc1 (stereo not drawn),TGI,M14 melanoma,> 100 µM
same,TGI,A498 renal,> 100 µM
same,TGI,RPMI-8226 leukemia,> 100 µM
same,TGI,LOX IMVI melanoma,> 100 µM
same,TGI,HOP-92 NSCLC,> 100 µM
same,TGI,KM12 colon,> 100 µM
same,TGI,EKVX NSCLC,> 100 µM
same,TGI,COLO 205 colon,> 100 µM
same,TGI,DMS 273 small cell lung,> 100 µM
same,TGI,DMS 114 small cell lung,> 100 µM
same,TGI,M19-MEL melanoma,> 100 µM
same,TGI,HL-60(TB) leukemia,> 100 µM
same,TGI,NCI-H23 lung,> 100 µM
same,TGI,NCI-H460 lung,> 100 µM
same,TGI,SK-OV-3 ovarian,> 100 µM
same,TGI,SNB-78 CNS,> 100 µM
same,TGI,SK-MEL-5 melanoma,> 100 µM
same,TGI,SF-268 CNS,> 100 µM
same,TGI,MOLT-4 leukemia,> 100 µM
same,TGI,OVCAR-8 ovarian,> 100 µM
same,TGI,UACC-257 melanoma,> 100 µM
same,TGI,HT29 colon,> 100 µM
same,TGI,MALME-3M melanoma,> 100 µM
same,TGI,IGROV1 ovarian,> 100 µM
same,TGI,K-562 leukemia,> 100 µM
same,TGI,RXF-631 renal,> 100 µM
same,TGI,HOP-62 NSCLC,> 100 µM
same,TGI,CAKI-1 renal,> 100 µM
same,TGI,KM20L2 colon,> 100 µM
same,TGI,LXFL 529 NSCLC,> 100 µM
same,TGI,HCT-116 colon,> 100 µM
same,TGI,U251 CNS,> 100 µM
same,TGI,DLD-1 colon,> 100 µM
same,TGI,HCC-2998 colon,> 100 µM
same,TGI,SF-295 CNS,> 100 µM
same,TGI,SW-620 colon,> 100 µM
same,TGI,OVCAR-5 ovarian,> 100 µM
same,TGI,OVCAR-3 ovarian,> 100 µM
same,TGI,UO-31 renal,> 100 µM
same,TGI,786-0 renal,> 100 µM
same,TGI,HCT-15 colon,> 100 µM
same,TGI,SNB-75 CNS,> 100 µM
same,TGI,SF-539 CNS,> 100 µM
same,TGI,UACC-62 melanoma,> 100 µM
same,TGI,ACHN renal,> 100 µM
same,TGI,TK-10 renal,> 100 µM
same,TGI,A549 NSCLC,> 100 µM
same,TGI,SK-MEL-2 melanoma,> 100 µM
same,TGI,SNB-19 CNS,> 100 µM
same,TGI,CCRF-CEM leukemia,> 100 µM
same,TGI,SK-MEL-28 melanoma,> 100 µM
same,TGI,RXF 393 renal,> 100 µM
same,TGI,NCI-H226 lung,> 100 µM
Cn1cnc([N+](=O)[O-])c1Sc1ccccn1,TGI,M14 melanoma,> 100 µM
same,TGI,A498 renal,> 100 µM
same,TGI,RPMI-8226 leukemia,> 100 µM
same,TGI,LOX IMVI melanoma,> 100 µM
same,TGI,HOP-92 NSCLC,> 100 µM
same,TGI,KM12 colon,> 100 µM
same,TGI,XF 498 CNS,> 100 µM
same,TGI,EKVX NSCLC,> 100 µM
same,TGI,COLO 205 colon,> 100 µM
same,TGI,DMS 273 small cell lung,> 100 µM
same,TGI,DMS 114 small cell lung,> 100 µM
same,TGI,M19-MEL melanoma,> 100 µM
same,TGI,NCI-H23 lung,> 100 µM
same,TGI,NCI-H460 lung,> 100 µM
same,TGI,SK-OV-3 ovarian,> 100 µM
same,TGI,SNB-78 CNS,> 100 µM
same,TGI,SN12C renal,> 100 µM
same,TGI,SK-MEL-5 melanoma,> 100 µM
same,TGI,SF-268 CNS,> 100 µM
same,TGI,MOLT-4 leukemia,> 100 µM
same,TGI,OVCAR-8 ovarian,> 100 µM
same,TGI,UACC-257 melanoma,> 100 µM
same,TGI,HT29 colon,> 100 µM
same,TGI,MALME-3M melanoma,> 100 µM
same,TGI,IGROV1 ovarian,> 100 µM
same,TGI,K-562 leukemia,> 100 µM
same,TGI,RXF-631 renal,> 100 µM
same,TGI,NCI-H522 lung,> 100 µM
same,TGI,HOP-62 NSCLC,> 100 µM
same,TGI,CAKI-1 renal,> 100 µM
same,TGI,LXFL 529 NSCLC,> 100 µM
same,TGI,HCT-116 colon,> 100 µM
same,TGI,U251 CNS,> 100 µM
same,TGI,DLD-1 colon,> 100 µM
same,TGI,HCC-2998 colon,> 100 µM
same,TGI,SF-295 CNS,> 100 µM
same,TGI,SW-620 colon,> 100 µM
same,TGI,OVCAR-5 ovarian,> 100 µM
same,TGI,OVCAR-3 ovarian,> 100 µM
same,TGI,UO-31 renal,> 100 µM
same,TGI,786-0 renal,> 100 µM
same,TGI,OVCAR-4 ovarian,> 100 µM
same,TGI,SNB-75 CNS,> 100 µM
same,TGI,HOP-18 NSCLC,96.1 µM
same,TGI,SF-539 CNS,> 100 µM
same,TGI,UACC-62 melanoma,> 100 µM
same,TGI,ACHN renal,> 100 µM
same,TGI,TK-10 renal,> 100 µM
same,TGI,A549 NSCLC,> 100 µM
same,TGI,SK-MEL-2 melanoma,> 100 µM
same,TGI,SNB-19 CNS,> 100 µM
same,TGI,CCRF-CEM leukemia,> 100 µM
same,TGI,SK-MEL-28 melanoma,> 100 µM
same,TGI,NCI-H226 lung,> 100 µM
same,TGI,SR leukemia,> 100 µM
